# From patent publication US10815235B2, “Polycyclic compounds and uses thereof” (priority 2017, dated 2020)
# Where two headings read alike, the source gives them in different places.
# Tests used:
# Experiment in all cases: GTPγS Scintillation Proximity Assay, agonist and antagonist mode
# Format in all cases: biochemical
# [1] = target: Dopamine D2L receptor (Homo sapiens, UniProt P14416)
# Experimental: (§1) Antagonist and agonist activities were determined using a GTPγS Scintillation Proximity Assay. The assay was prepared as follows: Membrane extracts were prepared from recombinant human Dopamine D2L, D3; Serotonin 5-HT1A, 5-HT1B, 5-HT1D and 5-HT1F receptors.
# (§2) Samples were tested by proprietary biological assays by Ogeda S. A., Euroscreen FAST Business Unit, Rue Adrienne Bolland, 47 B-6041 Gosselies, Belgium. Each protein assay was prepared using the following conditions.
# (§3) D2L • Assay buffer: 20 mM HEPES pH 7.4; 100 mM NaCl, 10 μg/ml saponin, 30 mM MgCl2, 0.1% protease-free BSA; • Membranes: recombinant D2L membrane extracts thawed on ice and diluted in assay buffer to give 1 mg/ml (10 μg/well) and kept on ice; • GDP: diluted in assay buffer to give a 3 μM final assay concentration; • Beads: PVT-WGA (Perkin Elmer, RPNQ001), diluted in assay buffer at 25 mg/ml (0.25 mg/well); and • GTPγ^35S: (PerkinElmer NEG030X), diluted in assay buffer to give 0.1 nM. D3 • Assay buffer: 20 mM HEPES pH 7.4; 100 mM NaCl, 10 μg/ml saponin, 1 mM MgCl2, 0.1% protease-free BSA; • Membranes: recombinant D3 membrane extracts thawed on ice and diluted in assay buffer to give 1 mg/ml (10 μg/well) and kept on ice; • GDP: diluted in assay buffer to give a 1 μM final assay concentration; • Beads: PVT-WGA (Perkin Elmer, RPNQ001), diluted in assay buffer at 50 mg/ml (0.5 mg/well); and • GTPγ^35S: (PerkinElmer NEG030X), diluted in assay buffer to give 0.1 nM.
# (§4) Membranes were mixed with GDP (volume:volume 1:1) and incubated for at least 15 min on ice. In parallel, GTPγ[^35S] is mixed with the beads (volume:volume 1:1) just before starting the reaction.
# (§5) To determine agonist activity, the following reagents were added in the wells of an Optiplate (Perkin Elmer): 50 μL of test or reference ligand, 10 μL of assay buffer, 20 μl of the membranes:GDP mix, and 20 μL of the GTPγ[^35S]:beads mix. EC50 values were used to determine whether a compound acted as an agonist.
# (§6) To determine antagonist activity, the following reagents were added in the wells of an Optiplate (Perkin Elmer): 50 μL of test or reference ligand, 20 μL of the membranes:GDP mix, then the plate is incubated 15 minutes at room temperature. After incubation, 10 μL of reference agonist at historical EC80 (final concentration) was added, followed by 20 μL of the GTPγ[^35S]:beads mix.
# (§7) The plates were covered with a top seal, mixed on an orbital shaker for 2 min, and then incubated for 1 hour at room temperature. Then the plates were centrifuged for 10 min at 2000 rpm, incubated at room temperature 1 hour and counted for 1 min/well with a PerkinElmer TopCount reader. IC50 values were used to determine whether a compound acted as an antagonist.
# [2] = target: Dopamine D3 receptor (Homo sapiens, UniProt P35462)
# Experimental: as §1, §2, §3, §4, §5, §6, §7
# [3] = target: T1, Serotonin 5-HT1A receptor (Homo sapiens, UniProt P08908)
# T1 sequence (P08908 1-422): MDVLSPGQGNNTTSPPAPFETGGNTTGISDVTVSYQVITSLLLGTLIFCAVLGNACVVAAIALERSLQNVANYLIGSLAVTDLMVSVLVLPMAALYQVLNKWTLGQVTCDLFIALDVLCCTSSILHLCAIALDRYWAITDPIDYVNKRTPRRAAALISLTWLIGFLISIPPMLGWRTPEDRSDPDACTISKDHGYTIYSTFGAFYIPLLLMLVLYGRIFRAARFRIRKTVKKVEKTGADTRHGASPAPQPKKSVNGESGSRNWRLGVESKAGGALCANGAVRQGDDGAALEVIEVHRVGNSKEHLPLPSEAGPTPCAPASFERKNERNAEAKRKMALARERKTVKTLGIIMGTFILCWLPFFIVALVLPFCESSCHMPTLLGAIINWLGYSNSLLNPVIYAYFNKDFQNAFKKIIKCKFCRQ
# Experimental: as §1, §2
# (§8) 5-HT1A • Assay buffer: 20 mM HEPES pH 7.4; 100 mM NaCl, 10 μg/ml saponin, 3 mM MgCl2, 0.1% protease-free BSA; • Membranes: recombinant 5-HT1A membrane extracts thawed on ice and diluted in assay buffer to give 1 mg/ml (10 μg/well) and kept on ice; • GDP: diluted in assay buffer to give a 3 μM final assay concentration; • Beads: PVT-WGA (Perkin Elmer, RPNQ001), diluted in assay buffer at 50 mg/ml (0.5 mg/well); and • GTPγ^35S: (PerkinElmer NEG030X), diluted in assay buffer to give 0.1 nM;
# as §4, §5, §6, §7
# [4] = target: Serotonin 5-HT1D receptor (Homo sapiens, UniProt P28221)
# Experimental: as §1, §2
# 5-HT1D • Assay buffer: 20 mM HEPES pH 7.4; 200 mM NaCl, 10 μg/ml saponin, 3 mM MgCl2; • Membranes: recombinant 5-HT1D membrane extracts thawed on ice and diluted in assay buffer to give […] and kept on ice; • GDP: diluted in assay buffer to give a 30 μM working solution (3 μM final concentration); • Beads: PVT-WGA (Perkin Elmer, RPNQ001), diluted in assay buffer at 50 mg/ml (0.5 mg/10 μl); and • GTPγ^35S: (PerkinElmer NEG030X), diluted in assay buffer to give 0.1 nM.
# as §4, §5, §6, §7
# [5] = target: Serotonin 5-HT1B receptor (Homo sapiens, UniProt P28222)
# Experimental: as §1, §2
# as §8, with “5-HT1B” for “5-HT1A”, “MgCl2;” for “MgCl2, 0.1% protease-free BSA;”, “nM.” for “nM;”
# as §4, §5, §6, §7
# [6] = Agonist Activity (EC50), D2L, membrane extracts
# [7] = Antagonist Activity (IC50), D2L, membrane extracts, vs reference agonist at EC80
# [8] = IC50 value for the Dopamine D2L receptor, antagonist mode, bound stated
# [9] = Agonist Activity (EC50), D3, membrane extracts
# [10] = Antagonist Activity (IC50), D3, membrane extracts, vs reference agonist at EC80
# [11] = EC50 value for the Dopamine D3 receptor, agonist mode, bound stated
# [12] = IC50 value for the Dopamine D3 receptor, antagonist mode, bound stated
# [13] = antagonist mode, bound stated, read-out: IC50 value for the Serotonin 5-HT1A receptor
# [14] = membrane extracts, vs reference agonist at EC80, read-out: Antagonist Activity (IC50), 5-HT1A
# [15] = Antagonist Activity (IC50), 5-HT1D, membrane extracts, vs reference agonist at EC80
# [16] = IC50 value for the Serotonin 5-HT1D receptor, antagonist mode, bound stated
# [17] = EC50 value for the Dopamine D2L receptor, agonist mode, bound stated
# [18] = Antagonist Activity (IC50), 5-HT1B, membrane extracts, vs reference agonist at EC80
# [19] = IC50 value for the Serotonin 5-HT1B receptor, antagonist mode, bound stated
# Serotonin 5-HT1D receptor, sequence (P28221 whole entry): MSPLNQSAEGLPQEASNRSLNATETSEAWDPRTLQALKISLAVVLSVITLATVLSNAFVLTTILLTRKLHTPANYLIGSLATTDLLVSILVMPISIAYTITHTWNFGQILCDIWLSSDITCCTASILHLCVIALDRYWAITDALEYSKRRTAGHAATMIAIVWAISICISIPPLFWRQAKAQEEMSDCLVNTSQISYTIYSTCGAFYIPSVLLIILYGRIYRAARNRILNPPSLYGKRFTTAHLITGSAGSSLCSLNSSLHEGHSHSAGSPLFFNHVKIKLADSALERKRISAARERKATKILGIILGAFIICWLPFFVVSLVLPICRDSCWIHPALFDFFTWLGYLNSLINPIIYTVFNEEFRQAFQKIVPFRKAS
# Dopamine D2L receptor, sequence (P14416 whole entry): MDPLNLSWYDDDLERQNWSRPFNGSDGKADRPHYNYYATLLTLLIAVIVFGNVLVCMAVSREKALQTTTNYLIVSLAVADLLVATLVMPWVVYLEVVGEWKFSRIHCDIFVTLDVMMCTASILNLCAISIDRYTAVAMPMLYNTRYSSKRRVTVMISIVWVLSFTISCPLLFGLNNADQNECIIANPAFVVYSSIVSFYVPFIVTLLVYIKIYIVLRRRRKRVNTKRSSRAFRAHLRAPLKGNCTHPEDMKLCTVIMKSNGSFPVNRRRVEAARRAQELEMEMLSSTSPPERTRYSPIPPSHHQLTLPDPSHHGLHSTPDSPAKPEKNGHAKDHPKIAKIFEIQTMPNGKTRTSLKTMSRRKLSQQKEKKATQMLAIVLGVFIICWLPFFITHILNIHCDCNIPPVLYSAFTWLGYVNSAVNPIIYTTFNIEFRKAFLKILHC
# Serotonin 5-HT1B receptor, sequence (P28222 whole entry): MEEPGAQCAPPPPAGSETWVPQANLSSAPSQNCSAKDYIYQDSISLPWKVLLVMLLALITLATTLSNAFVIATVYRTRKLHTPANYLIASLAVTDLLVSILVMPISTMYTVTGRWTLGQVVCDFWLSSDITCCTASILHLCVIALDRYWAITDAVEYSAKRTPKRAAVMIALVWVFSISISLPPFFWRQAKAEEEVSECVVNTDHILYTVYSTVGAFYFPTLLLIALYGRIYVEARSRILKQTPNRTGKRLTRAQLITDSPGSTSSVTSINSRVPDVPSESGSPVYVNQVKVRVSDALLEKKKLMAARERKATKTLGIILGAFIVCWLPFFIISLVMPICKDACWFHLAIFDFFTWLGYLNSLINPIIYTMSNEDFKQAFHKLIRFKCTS
# Dopamine D3 receptor, sequence (P35462 whole entry): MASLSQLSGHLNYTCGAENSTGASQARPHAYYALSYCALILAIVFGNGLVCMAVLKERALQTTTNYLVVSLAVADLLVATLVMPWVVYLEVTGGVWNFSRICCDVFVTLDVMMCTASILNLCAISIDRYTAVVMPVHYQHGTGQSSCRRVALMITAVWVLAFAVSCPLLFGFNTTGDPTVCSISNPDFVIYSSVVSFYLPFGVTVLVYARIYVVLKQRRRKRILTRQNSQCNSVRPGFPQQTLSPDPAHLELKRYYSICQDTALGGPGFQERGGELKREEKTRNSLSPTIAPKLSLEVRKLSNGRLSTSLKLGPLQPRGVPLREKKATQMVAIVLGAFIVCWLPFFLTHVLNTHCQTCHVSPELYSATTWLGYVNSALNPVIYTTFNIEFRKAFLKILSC
Structure (SMILES),"EC50 [1, 6]","IC50 [1, 7]","IC50 [1, 8]","EC50 [2, 9]","IC50 [2, 10]","EC50 [2, 11]","IC50 [2, 12]","IC50 [3, 13]","IC50 [3, 14]","IC50 [4, 15]","IC50 [4, 16]","EC50 [1, 17]","IC50 [5, 18]","IC50 [5, 19]",other results
"CCN(CC(F)(F)F)C(=O)N[C@H]1C[C@@H]2c3cccc4[nH]c(C5CC5)c(c34)C[C@H]2N(C)C1 [Compound A17H, 3-((6aR,9S,10aR)-5-cyclopropyl-7-methyl-4,6,6a,7,8,9,10,10a-octahydroindolo[4,3-fg]quinolin-9-yl)-1-ethyl-1-(2,2,2-trifluoroethyl)urea]",1.1 nM,4.2 nM,< 1000 nM,8.2 nM,11 nM,< 1000 nM,< 1000 nM,< 1000 nM,590 nM,50 nM,< 1000 nM,,,,
"CCN(CC)C(=O)N[C@H]1C[C@@H]2c3cccc4[nH]c(C(F)(F)F)c(c34)C[C@H]2N(C)C1 [Compound A9H, 1,1-diethyl-3-((6aR,9S,10aR)-7-methyl-5-(trifluoromethyl)-4,6,6a,7,8,9,10,10a-octahydroindolo[4,3-fg]quinolin-9-yl)urea]",4.6 nM,42 nM,< 1000 nM,,13 nM,,< 1000 nM,,,10 nM,< 1000 nM,< 1000 nM,110 nM,< 1000 nM,
"CCN(CC(F)(F)F)C(=O)N[C@H]1C[C@@H]2c3cccc4[nH]c(C(F)(F)F)c(c34)C[C@H]2N(C)C1 [Compound A16H, 1-ethyl-3-((6aR,9S,10aR)-7-methyl-5-(trifluoromethyl)-4,6,6a,7,8,9,10,10a-octahydroindolo[4,3-fg]quinolin-9-yl)-1-(2,2,2-trifluoroethyl)urea]",,,< 1000 nM,,,,< 1000 nM,,,,< 1000 nM,,,< 1000 nM,"IC50 ([1]; membrane extracts, vs reference agonist at EC80, read-out: Antagonist Activity (IC50), D2L): 130 nM; IC50 ([2]; membrane extracts, vs reference agonist at EC80, read-out: Antagonist Activity (IC50), D3): 55 nM; IC50 ([5]; membrane extracts, vs reference agonist at EC80, read-out: Antagonist Activity (IC50), 5-HT1B): 340 nM; IC50 ([4]; membrane extracts, vs reference agonist at EC80, read-out: Antagonist Activity (IC50), 5-HT1D): 14 nM"
"CC[C@@H](CO)NC(=O)[C@@H]1C[C@@H]2c3cccc4c3c(c(C3CC3)n4C)C[C@H]2N(C)C1 [Compound D13H, (6aR,9R,10aR)-5-cyclopropyl-N—((S)-1-hydroxybutan-2-yl)-4,7-dimethyl-4,6,6a,7,8,9,10,10a-octahydroindolo[4,3-fg]quinoline-9-carboxamide]",170 nM,,,48 nM,400 nM,< 1000 nM,< 1000 nM,,,,,< 1000 nM,,,"EC50 ([5]; Agonist Activity (EC50), 5-HT1B, membrane extracts): 430 nM; EC50 ([5]; EC50 value for the Serotonin 5-HT1B receptor, agonist mode, bound stated): < 1000 nM; EC50 ([4]; Agonist Activity (EC50), 5-HT1D, membrane extracts): 11 nM; EC50 ([4]; EC50 value for the Serotonin 5-HT1D receptor, agonist mode, bound stated): < 1000 nM"
"CCN(CC)C(=O)N[C@H]1C[C@@H]2c3cccc4[nH]c(Br)c(c34)C[C@H]2N(C)C1 [Compound A8H, 3-((6aR,9S, 10aR)-5-bromo-7-methyl-4,6,6a,7,8,9,10,10a-octahydroindolo[4,3-fg]quinolin-9-yl)-1,1-diethylurea]",1.1 nM,3.5 nM,< 1000 nM,,9.3 nM,,< 1000 nM,< 1000 nM,160 nM,8 nM,< 1000 nM,< 1000 nM,410 nM,< 1000 nM,"EC50 ([3]; agonist mode, bound stated, read-out: EC50 value for the Serotonin 5-HT1A receptor): < 1000 nM; EC50 ([3]; membrane extracts, read-out: Agonist Activity (EC50), 5-HT1A): 31 nM"
